Source: patent publication US8686113B2 (priority 2009, dated 2014)
Converted amounts (≈) assume the structure as drawn. Like-named read-outs stand apart in the source and are kept apart here. Non-standard residues stand in square brackets, D forms with d. Residues, ends and D or L forms follow the SMILES beside them. No end group written: not given here. *: point of attachment. Hyp = O=C(O)[C@@H]1C[C@@H](O)CN1; Tle = CC(C)(C)[C@H](N)C(=O)O; Orn = NCCC[C@H](N)C(=O)O; NHPr = CCCN*

Legend:
[1] = mouse, serum
[2] = Stability against bacterial proteases in E. coli lysate; type: in vitro ADME; details: E. coli lysate with 0.5 mg/mL protein concentration, 37° C.
Procedure: For the bacterial lysate, 500 mL of nutrient broth (Carl Roth GmbH+Co. KG, Karlsruhe) was inoculated with E. coli BL21 A1 and incubated overnight at 37° C. 2×250 mL bacterial suspension were centrifuged for 25 min at 5000 rpm and 4° C. in a Beckman Avanti™ J-20-XP centrifuge with JLA-10.500 rotor (Beckman Coulter, Fullerton, U.S.A.). The pellets were each suspended in 30 mL PBS (pH 7.4) and centrifuged again in a Beckman Allegra™ 2IR centrifuge (Beckman Coulter, Fullerton, U.S.A.). The pellets were each suspended in 10 mL PBS and were disrupted with ultrasound (Vibra-cell™ microtip, Fisher Bioblock Scientific, Illkirch, France) 2×5 min (750 W; amplitude 40%; 2 s on/3 s off) on ice. The bacterial lysates were combined and 1 mL aliquots were centrifuged at 15400 rpm for 20 min at 4° C. (Beckman Allegra™). The supernatants were removed and stored at −20° C. The protein content of the bacterial lysate was determined by protein determination according to Bradford.
A solution of 0.15 μg/mL peptide in bacterial lysate with protein content of 1.5 mg/mL or 0.5 mg/mL was incubated at 37° C. After 0, 30, 60, 120, 240 or 360 min, 200 μL was taken from each and the proteins were precipitated with 50 μL of 15% trichloroacetic acid. Then it was incubated for 10 min at 4° C. and then centrifuged for 5 min at 13000 rpm in a Minispin desktop centrifuge. 210 μL was taken from the supernatant and neutralized with 1 mol/L sodium hydroxide solution. The intact peptide and the degradation products were analyzed by HPLC. 60 μL of 3% aqueous acetonitrile with 0.1% trifluoroacetic acid (TFA) was added to the solution and 250 μL of the mixture was injected. After chromatographic separation, the constituents were identified by MALDI-TOF-MS,
In order to investigate the stability against bacterial proteases, a lysate was prepared from an overnight culture of E. coli BL21 A1 and the peptides were incubated in it. Using Bradford protein determination, the protein concentration was adjusted to 0.5 or 1.5 mg/mL.

[3] = system: E. coli BL21 A1; type: cell-based, Escherichia coli
Procedure, shortened: (§1)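 Broth microdilution in 1% TSB with twofold peptide series, final 128 μg/mL to 62.5 ng/mL, against 5×10^6 bacteria/mL stock suspension added 1:1. Incubated 20 h at 37 °C, growth read by absorbance at 595 nm; MIC is the lowest concentration with no growth, determined in triplicate.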

[4] = system: M. luteus 10240; assay: Growth inhibition assay (microdilution MIC); type: cell-based, Micrococcus luteus; details: 10240, 20 h
Procedure, shortened: as §1

[5] = 25% aqueous mouse serum, 37° C., 75 μg/mL peptide
[6] = mouse, serum; remark: listed apart in the source
Procedure: For this, the peptides and peptidomimetics were dissolved in water, mouse serum was added and the peptide concentration was adjusted to 75 μg/mL. While shaking continuously, the mixture was incubated at 37° C. After 0, 30, 60, 120, 240 and 360 minutes, in each case an aliquot was taken and mixed with 15% aqueous trichloroacetic acid (Carl Roth GmbH & Co. KG; Karlsruhe, Germany). After incubation on ice for a further 10 minutes, the precipitated serum proteins were centrifuged off (5 min, 13400 rpm, MiniSpin, Eppendorf AG, Hamburg, Germany). The supernatant was removed, neutralized with 1 mol/L aqueous sodium hydroxide solution (Fluke Chemie GmbH, Buchs, Switzerland) and stored at −20° C. until analysis.
The supernatants were analyzed by RP-HPLC with a linear acetonitrile gradient (Biosolve BV, Valkenswaard, The Netherlands) in the presence of 0.1% trifluoroacetic acid (TFA, UV-grade, Fluka Chemie GmbH, Buchs, Switzerland) as ion-pairing reagent. The fractions were co-crystallized with α-cyanohydroxycinnamic acid (Bruker Daltonik GmbH; Bremen, Germany) as matrix (5.3 mg/mL in 50% acetonitrile in 0.1% aqueous TFA) and were analyzed with a tandem mass spectrometer (MALDI-TOF/TOF-MS, 4700 Proteomics Analyzer; Applied Biosystems GmbH, Weiterstadt, Germany) in the positive-ion reflector mode. The proportion of intact peptides and their degradation products or metabolites could thus be identified and quantified at the individual time points. The control used was 25% aqueous mouse serum, which was analyzed in parallel for the same time intervals.
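Throughout, for Half-life in 25% mouse serum: intact peptide left at successive time points measured by reversed-phase HPLC with an acetonitrile gradient in the supernatant after precipitation of serum proteins.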

Row | Compound | half-life [2] | MIC E. coli BL21 A1 ([3]; BL21, 20 h) | MIC M. luteus 10240 [4] | Half-life in 25% mouse serum [5] | half-life [6] | other results
1 | CC[C@H](C)[C@H](NC(=O)[C@H](CCCN)NC(=O)[C@H](CCCNC(=N)N)NC(=O)[C@@H]1CCCN1C(=O)[C@@H]1CCCN1C(=O)[C@H](CCCNC(=N)N)NC(=O)[C@@H]1CCCN1C(=O)[C@H](CCCNC(=N)N)NC(=O)[C@@H]1CCCN1C(=O)[C@H](CC(C)C)NC(=O)[C@H](Cc1ccc(O)cc1)NC(=O)[C@@H]1CCCN1C(=O)[C@@H]1CCCN1C(=O)[C@H](CCCCN)NC(=O)[C@H](CC(=O)O)NC(=O)[C@@H](N)C(C)C)C(=O)N[C@@H](Cc1ccc(O)cc1)C(=O)N[C@@H](CC(N)=O)C(=O)N[C@@H](CCCN)C(N)=O [SEQ ID NO. 72, VDKPPYLPRPRPPROIYNO-NH2] (H-VDKPPYLPRPRPPR[Orn]IYN[Orn]-NH2) | 1.92 h | 8 mg/L (≈ 3.47 µM) | – | – | – | half-life ([1]; Half-life in 25% mouse serum, 25% aqueous mouse serum, 37° C., 75 μg/mL peptide): > 6 h; half-life ([1]; half-life in 25% aqueous mouse serum, 25% serum): > 6 h; MIC values against E. coli [3]: 8 mg/L (≈ 3.47 µM)
2 | CC[C@H](C)[C@H](NC(=O)[C@H](CCCN)NC(=O)[C@H](CCCNC(=N)N)NC(=O)[C@@H]1C[C@@H](O)CN1C(=O)[C@@H]1CCCN1C(=O)[C@H](CCCNC(=N)N)NC(=O)[C@@H]1CCCN1C(=O)[C@H](CCCNC(=N)N)NC(=O)[C@@H]1CCCN1C(=O)[C@H](CC(C)C)NC(=O)[C@H](Cc1ccc(O)cc1)NC(=O)[C@@H]1CCCN1C(=O)[C@@H]1CCCN1C(=O)[C@H](CCCCN)NC(=O)[C@H](CC(=O)O)NC(=O)[C@@H](N)C(C)C)C(=O)N[C@@H](Cc1ccc(O)cc1)C(=O)N[C@@H](CC(N)=O)C(=O)N[C@@H](CCCN)C(N)=O [SEQ ID NO. 107] (H-VDKPPYLPRPRP[Hyp]R[Orn]IYN[Orn]-NH2) | 3.58 h | – | – | – | – | –
3 | CC(C)C[C@H](NC(=O)[C@H](Cc1ccc(O)cc1)NC(=O)[C@@H]1CCCN1C(=O)[C@@H]1CCCN1C(=O)[C@H](CCCCN)NC(=O)[C@H](CC(=O)O)NC(=O)[C@@H](N)C(C)C)C(=O)N1CCC[C@H]1C(=O)N[C@@H](CCCNC(=N)N)C(=O)N1CCC[C@H]1C(=O)N[C@@H](CCCNC(=N)N)C(=O)N1CCC[C@H]1C(=O)N1CCC[C@H]1C(=O)N[C@@H](CCCNC(=N)N)C(=O)N[C@@H](CCCN)C(=O)N[C@H](C(=O)N[C@@H](Cc1ccc(O)cc1)C(=O)N[C@@H](CC(N)=O)C(=O)N[C@@H](CCCN)C(N)=O)C(C)(C)C [SEQ ID NO. 109, VDKPPYLPRPRPPRO-Tle-YNO-NH2] (H-VDKPPYLPRPRPPR[Orn][Tle]YN[Orn]-NH2) | > 4 h | – | – | – | – | –
4 | CC(C)C[C@H](NC(=O)[C@H](Cc1ccc(O)cc1)NC(=O)[C@@H]1CCCN1C(=O)[C@@H]1CCCN1C(=O)[C@H](CCCCN)NC(=O)[C@H](CC(=O)O)NC(=O)[C@@H](N)C(C)C)C(=O)N1CCC[C@H]1C(=O)N[C@@H](CCCNC(=N)N)C(=O)N1CCC[C@H]1C(=O)N[C@@H](CCCNC(=N)N)C(=O)N1CCC[C@H]1C(=O)N1C[C@H](O)C[C@H]1C(=O)N[C@@H](CCCNC(=N)N)C(=O)N1C[C@H](O)C[C@H]1C(=O)N[C@H](C(=O)N[C@@H](Cc1ccc(O)cc1)C(=O)N[C@@H](CC(N)=O)C(=O)N[C@@H](CCCN)C(N)=O)C(C)(C)C [SEQ ID NO. 110] (H-VDKPPYLPRPRP[Hyp]R[Hyp][Tle]YN[Orn]-NH2) | > 4 h | – | – | – | – | MIC E. coli BL21 A1 ([3]; 1% TSB, 20 h at 37° C.): 2 mg/L (≈ 0.862 µM)
5 | CC[C@H](C)[C@H](NC(=O)[C@H](CCCNC(=N)N)NC(=O)[C@H](CCCNC(=N)N)NC(=O)[C@@H]1CCCN1C(=O)[C@@H]1CCCN1C(=O)[C@H](CCCNC(=N)N)NC(=O)[C@@H]1CCCN1C(=O)[C@H](CCCNC(=N)N)NC(=O)[C@@H]1CCCN1C(=O)[C@H](CC(C)C)NC(=O)[C@H](Cc1ccc(O)cc1)NC(=O)[C@@H]1CCCN1C(=O)[C@@H]1CCCN1C(=O)[C@H](CCCCN)NC(=O)[C@H](CC(=O)O)NC(=O)[C@@H](N)C(C)C)C(=O)N[C@@H](Cc1ccc(O)cc1)C(=O)N[C@@H](CC(N)=O)C(=O)N[C@@H](CCCN)C(N)=O [compound 50] (H-VDKPPYLPRPRPPRRIYN[Orn]-NH2) | – | 8 mg/L (≈ 3.41 µM) | 16 mg/L (≈ 6.81 µM) | 2 h | – | –
6 | CCCNC(=O)[C@H](CCCNC(=N)N)NC(=O)[C@H](CC(N)=O)NC(=O)[C@H](Cc1ccc(O)cc1)NC(=O)[C@@H](NC(=O)[C@H](CCCNC(=N)N)NC(=O)[C@H](CCCNC(=N)N)NC(=O)[C@@H]1CCCN1C(=O)[C@@H]1CCCN1C(=O)[C@H](CCCNC(=N)N)NC(=O)[C@@H]1CCCN1C(=O)[C@H](CCCNC(=N)N)NC(=O)[C@@H]1CCCN1C(=O)[C@H](CC(C)C)NC(=O)[C@H](Cc1ccc(O)cc1)NC(=O)[C@@H]1CCCN1C(=O)[C@@H]1CCCN1C(=O)[C@H](CCCCN)NC(=O)[C@H](CC(=O)O)NC(=O)[C@@H](N)C(C)C)[C@@H](C)CC [compound 58] (H-VDKPPYLPRPRPPRRIYNR-NHPr) | – | 4 mg/L (≈ 1.64 µM) | 8 mg/L (≈ 3.29 µM) | >2 h | 1 h | –
7 | CC[C@H](C)[C@H](NC(=O)[C@H](CCCN)NC(=O)[C@H](CCCNC(=N)N)NC(=O)[C@@H]1CCCN1C(=O)[C@@H]1CCCN1C(=O)[C@H](CCCNC(=N)N)NC(=O)[C@@H]1CCCN1C(=O)[C@H](CCCNC(=N)N)NC(=O)[C@@H]1CCCN1C(=O)[C@H](CC(C)C)NC(=O)[C@H](Cc1ccc(O)cc1)NC(=O)[C@@H]1CCCN1C(=O)[C@@H]1CCCN1C(=O)[C@H](CCCCN)NC(=O)[C@H](CC(=O)O)NC(=O)[C@@H](N)C(C)C)C(=O)N[C@@H](Cc1ccc(O)cc1)C(=O)N[C@@H](CC(N)=O)C(=O)N[C@@H](CCCNC(=N)N)C(N)=O [compound 61] (H-VDKPPYLPRPRPPR[Orn]IYNR-NH2) | – | 8 mg/L (≈ 3.41 µM) | 16 mg/L (≈ 6.81 µM) | 1.5 h | 1.08 h | –
8 | CCCNC(=O)[C@H](CCCNC(=N)N)NC(=O)[C@H](CC(N)=O)NC(=O)[C@H](Cc1ccc(O)cc1)NC(=O)[C@@H](NC(=O)[C@H](CCCN)NC(=O)[C@H](CCCNC(=N)N)NC(=O)[C@@H]1CCCN1C(=O)[C@@H]1CCCN1C(=O)[C@H](CCCNC(=N)N)NC(=O)[C@@H]1CCCN1C(=O)[C@H](CCCNC(=N)N)NC(=O)[C@@H]1CCCN1C(=O)[C@H](CC(C)C)NC(=O)[C@H](Cc1ccc(O)cc1)NC(=O)[C@@H]1CCCN1C(=O)[C@@H]1CCCN1C(=O)[C@H](CCCCN)NC(=O)[C@H](CC(=O)O)NC(=O)[C@@H](N)C(C)C)[C@@H](C)CC [compound 71] (H-VDKPPYLPRPRPPR[Orn]IYNR-NHPr) | – | – | 8 mg/L (≈ 3.35 µM) | >6 h | 1.75 h | –
9 | CC(C)C[C@H](NC(=O)[C@H](CCCN)NC(=O)[C@H](CCCNC(=N)N)NC(=O)[C@@H]1CCCN1C(=O)[C@@H]1CCCN1C(=O)[C@H](CCCNC(=N)N)NC(=O)[C@@H]1CCCN1C(=O)[C@H](CCCNC(=N)N)NC(=O)[C@@H]1CCCN1C(=O)[C@H](CC(C)C)NC(=O)[C@H](Cc1ccc(O)cc1)NC(=O)[C@@H]1CCCN1C(=O)[C@@H]1CCCN1C(=O)[C@H](CCCCN)NC(=O)[C@H](CC(=O)O)NC(=O)[C@@H](N)C(C)C)C(=O)N[C@@H](Cc1ccc(O)cc1)C(=O)N[C@@H](CC(N)=O)C(=O)N[C@@H](CCCN)C(N)=O [compound 73] (H-VDKPPYLPRPRPPR[Orn]LYN[Orn]-NH2) | 1.5 h | 8 mg/L (≈ 3.47 µM) | 16 mg/L (≈ 6.94 µM) | – | – | –
10 | VDKPPYLPRPRPPRRIYNR [compound 19] | – | 32 mg/L | 64 mg/L | <0.5 h | – | –
